Patent publication US4528290A, “Stimulating dopamine D-1 receptors” (Eli Lilly and Company, priority 1984, dated 1985)

Tested on: dopamine D-1 receptors (cyclic AMP efflux, striatal tissue)
Test: tissue or blood
Protocol: A second, particularly sensitive indicator of D-1 agonist activity is the determination of the cyclic AMP efflux in tissue slices using a procedure based on Stoof and Kebabian (loc. cit). In this procedure, striatal tissue is dissected from rat brains and chopped into 0.3 mm.×[…]. fragments. The tissue fragments are suspended in the appropriate buffer system (Earl's balanced salt solution, for example) and the suspension is continuously aerated with 95:5 O2 /CO2 while being maintained at 37° C. Just prior to use, the tissue fragments are transferred to fresh media to which is added bovine serum albumin (2.5 mg./ml.) and 3-isobutyl-1-methylxanthine (1 millimolar) to block degradation of cyclic AMP. The tissue fragments are incubated in buffer without drugs and are then transferred to the same media with added drug. Aliquots of incubation media, with and without drugs, are assayed for cyclic AMP concentration by a specific radioimmunoassay. The effect of the drug or drugs on efflux is expressed as a percentage of the resting efflux. The following medium was employed:
Sulpiride is known to be an antagonist on pituitary D-2 receptors. Addition of sulpiride to a test system, such as that described above, blocks any D-2 effect of a drug in reducing cyclic AMP production.

Question: `CCCN1CCC[C@@H]2Cc3[nH]ncc3C[C@H]21` [4aR, 8aR enantiomer, 4aR,8aR-5-n-propyl-4,4a,5,6,7,8,8a,9-octahydro-1H(and 2H)-pyrazolo[4,3-g]-quinoline] was tested. Which “cyclic AMP production increase by SKF38393 after addition of the compound” value (compound at 0.5×10^-6 M added to SKF38393 10^-6 molar (145% alone)) did it give?
Answer: Its value is 42%.

Question: For `Oc1cc2c(cc1O)C(c1ccccc1)CNCC2` (stereo not shown) [SKF38393, 1,2,3,4-tetrahydro-7,8-dihydroxy-1-phenyl-1H-3-benzazepine], which activation at 1 µM (Rattus norvegicus, read-out: increase of cyclic AMP production) is on record?
Answer: Its activation at 1 µM is 145%.

Question: For `CCN1CCCC1CNC(=O)c1cc(S(N)(=O)=O)ccc1OC` (stereo not shown) [sulpiride], which “effect of sulpiride on the lowering of the SKF38393 cyclic AMP increase by the trans-(-)-enantiomer” value (sulpiride 10^-6 M) is on record?
Answer: The value was “suppressed”.

Question: And the “effect of sulpiride on the increase in cyclic AMP efflux caused by A” value (sulpiride 10^-6 M with A 5 × 10^-7 M)?
Answer: Its value is “no effect on the increase in cyclic AMP efflux”.
